# Where “and” joins values, the source holds several entries; their conditions need not be identical. Equal entries are not always repeated. Where two headings read alike, the source gives them in different places.
# Columns and labels:
# CYP1A2 = biological target: T1, CYP1A2 (Homo sapiens, UniProt P05177); assay: Reversible CYP inhibition in human liver microsomes; conditions: for activity at 0.1 µM / activity at 0.214 µM / activity at 0.979 µM / activity at 2.09 µM / activity at 4.48 µM / activity at 20.5 µM / activity at 43.8 µM / activity at 93.5 µM / activity at 200 µM: pH 7.4, Percent of Control Activity
# T1 sequence (P05177 1-516): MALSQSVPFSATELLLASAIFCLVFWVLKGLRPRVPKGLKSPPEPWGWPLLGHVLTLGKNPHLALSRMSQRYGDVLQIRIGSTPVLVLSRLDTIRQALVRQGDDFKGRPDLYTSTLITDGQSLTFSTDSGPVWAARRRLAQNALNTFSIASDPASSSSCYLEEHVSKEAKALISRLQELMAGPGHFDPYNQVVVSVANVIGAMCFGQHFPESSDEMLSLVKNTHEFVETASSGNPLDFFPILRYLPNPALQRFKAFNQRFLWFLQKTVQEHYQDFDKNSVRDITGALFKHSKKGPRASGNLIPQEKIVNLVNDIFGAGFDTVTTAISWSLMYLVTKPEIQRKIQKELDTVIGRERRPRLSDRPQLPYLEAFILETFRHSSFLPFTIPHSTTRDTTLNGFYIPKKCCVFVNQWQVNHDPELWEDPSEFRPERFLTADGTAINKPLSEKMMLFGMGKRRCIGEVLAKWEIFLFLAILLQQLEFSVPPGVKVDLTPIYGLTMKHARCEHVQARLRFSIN
# OATP1B3 = biological target: T2, OATP1B3 (Homo sapiens, UniProt Q9NPD5); assay: Transporter inhibition using transfected HEK293 cells
# T2 sequence (Q9NPD5 1-702): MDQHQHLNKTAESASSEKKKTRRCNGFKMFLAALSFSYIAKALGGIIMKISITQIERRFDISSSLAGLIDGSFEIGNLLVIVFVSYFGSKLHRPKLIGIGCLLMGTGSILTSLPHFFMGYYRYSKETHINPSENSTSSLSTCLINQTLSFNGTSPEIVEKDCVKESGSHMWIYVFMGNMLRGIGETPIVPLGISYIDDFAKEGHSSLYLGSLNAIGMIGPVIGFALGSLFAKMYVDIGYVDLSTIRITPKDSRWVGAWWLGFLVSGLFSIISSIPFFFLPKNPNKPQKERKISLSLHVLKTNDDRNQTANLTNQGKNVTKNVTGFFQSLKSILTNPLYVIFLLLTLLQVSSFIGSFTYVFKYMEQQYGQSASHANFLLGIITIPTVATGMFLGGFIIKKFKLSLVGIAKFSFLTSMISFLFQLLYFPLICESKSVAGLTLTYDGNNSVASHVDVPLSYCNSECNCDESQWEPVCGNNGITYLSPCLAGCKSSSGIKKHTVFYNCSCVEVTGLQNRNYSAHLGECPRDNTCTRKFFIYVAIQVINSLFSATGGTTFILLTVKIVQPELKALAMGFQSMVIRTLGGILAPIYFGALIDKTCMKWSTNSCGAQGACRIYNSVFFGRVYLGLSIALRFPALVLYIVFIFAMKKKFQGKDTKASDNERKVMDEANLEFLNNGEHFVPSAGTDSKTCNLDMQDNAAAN
# CYP2D6 = CYP2D6 (Homo sapiens, UniProt P10635); assay: Reversible CYP inhibition in human liver microsomes
# Chain of CYP2D6 (P10635 whole entry): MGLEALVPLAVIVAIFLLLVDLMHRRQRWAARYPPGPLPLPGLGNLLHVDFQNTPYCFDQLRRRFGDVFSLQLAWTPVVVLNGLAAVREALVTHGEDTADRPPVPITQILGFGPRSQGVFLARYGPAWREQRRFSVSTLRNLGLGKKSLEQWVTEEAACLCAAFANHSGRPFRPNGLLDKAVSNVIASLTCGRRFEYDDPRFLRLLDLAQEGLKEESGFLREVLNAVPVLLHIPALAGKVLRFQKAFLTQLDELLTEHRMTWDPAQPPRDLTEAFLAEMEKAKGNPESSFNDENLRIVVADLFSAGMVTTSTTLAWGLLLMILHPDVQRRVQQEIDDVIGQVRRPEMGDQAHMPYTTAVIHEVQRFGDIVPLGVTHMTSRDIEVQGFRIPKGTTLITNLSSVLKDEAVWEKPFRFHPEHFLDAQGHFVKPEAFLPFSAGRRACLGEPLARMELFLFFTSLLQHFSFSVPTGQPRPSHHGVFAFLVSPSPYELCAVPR
# [1] = tested on: Salmonella typhimurium strains and E. coli strain WP2 uvrA; assay: Bacterial reverse mutation assay; conditions: with and without metabolic activation
# [2] = Human blood hemocompatibility (hemolysis, flocculation)
# [3] = In vitro micronucleus formation; type: cell-based
structure (smiles),measurement,setting,value
COc1cccc2[nH]c(C(=O)N[C@@H](CC(C)C)C(=O)N[C@@H](C[C@@H]3CCNC3=O)C(=O)CO)cc12 [PF-00835231],Percent of Control Activity,"CYP1A2; CYP 1A2, 0.1 µM, 30-Minute Preincubation, 0.1 µM",100.7% and 97.2%
same,Percent of Control Activity,"CYP1A2; CYP 1A2, 0.1 µM, Zero-Minute Preincubation, 0.1 µM",91.5%
same,Percent of Control Activity,"CYP1A2; CYP 1A2, 0.214 µM, 30-Minute Preincubation, 0.214 µM",101.6% and 102.2%
same,Percent of Control Activity,"CYP1A2; CYP 1A2, 0.214 µM, Zero-Minute Preincubation, 0.214 µM",97.3%
same,Percent of Control Activity,"CYP1A2; CYP 1A2, 0.979 µM, 30-Minute Preincubation, 0.979 µM",100.1% and 99.5%
same,Percent of Control Activity,"CYP1A2; CYP 1A2, 0.979 µM, Zero-Minute Preincubation, 0.979 µM",99.8% and 102.1%
same,Percent of Control Activity,"CYP1A2; CYP 1A2, 2.09 µM, 30-Minute Preincubation, 2.09 µM",98.8%
same,Percent of Control Activity,"CYP1A2; CYP 1A2, 2.09 µM, Zero-Minute Preincubation, 2.09 µM",90.6% and 85.1%
same,Percent of Control Activity,"CYP1A2; CYP 1A2, 4.48 µM, 30-Minute Preincubation, 4.48 µM",99.2% and 99.5%
same,Percent of Control Activity,"CYP1A2; CYP 1A2, 4.48 µM, Zero-Minute Preincubation, 4.48 µM",97.7%
same,Percent of Control Activity,"CYP1A2; CYP 1A2, 20.5 µM, 30-Minute Preincubation, 20.5 µM",99.6% and 97.2%
same,Percent of Control Activity,"CYP1A2; CYP 1A2, 20.5 µM, Zero-Minute Preincubation, 20.5 µM",95.6% and 98.0%
same,Percent of Control Activity,"CYP1A2; CYP 1A2, 43.8 µM, 30-Minute Preincubation, 43.8 µM",96.6% and 97.7%
same,Percent of Control Activity,"CYP1A2; CYP 1A2, 43.8 µM, Zero-Minute Preincubation, 43.8 µM",92.9% and 93.4%
same,Percent of Control Activity,"CYP1A2; CYP 1A2, 93.5 µM, 30-Minute Preincubation, 93.5 µM",90.5% and 95.8%
same,Percent of Control Activity,"CYP1A2; CYP 1A2, 93.5 µM, Zero-Minute Preincubation, 93.5 µM",76.6% and 87.4%
same,Percent of Control Activity,"CYP1A2; CYP 1A2, 200 µM, 30-Minute Preincubation, 200 µM",92.7% and 91.0%
same,Percent of Control Activity,"CYP1A2; CYP 1A2, 200 µM, Zero-Minute Preincubation, 200 µM",81.0% and 74.4%
same,IC50,"CYP1A2; human, microsomes, pH 7.4",> 200 µM
same,activity at 0.1 µM,"CYP1A2; human, microsomes, CYP 1A2, 0.1 µM, 30-Minute Preincubation",98%
same,activity at 0.1 µM,"CYP1A2; human, microsomes, CYP 1A2, 0.1 µM, Zero-Minute Preincubation",97.8%
same,activity at 0.214 µM,"CYP1A2; human, microsomes, CYP 1A2, 0.214 µM, 30-Minute Preincubation",96.5%
same,activity at 0.214 µM,"CYP1A2; human, microsomes, CYP 1A2, 0.214 µM, Zero-Minute Preincubation",98.4%
same,activity at 0.979 µM,"CYP1A2; human, microsomes, CYP 1A2, 0.979 µM, 30-Minute Preincubation",98.9%
same,activity at 0.979 µM,"CYP1A2; human, microsomes, CYP 1A2, 0.979 µM, Zero-Minute Preincubation",97.6%
same,activity at 2.09 µM,"CYP1A2; human, microsomes, CYP 1A2, 2.09 µM, 30-Minute Preincubation",98.3%
same,activity at 2.09 µM,"CYP1A2; human, microsomes, CYP 1A2, 2.09 µM, Zero-Minute Preincubation",97.8%
same,activity at 4.48 µM,"CYP1A2; human, microsomes, CYP 1A2, 4.48 µM, 30-Minute Preincubation",97%
same,activity at 4.48 µM,"CYP1A2; human, microsomes, CYP 1A2, 4.48 µM, Zero-Minute Preincubation",99.3%
same,activity at 20.5 µM,"CYP1A2; human, microsomes, CYP 1A2, 20.5 µM, 30-Minute Preincubation",97.1%
same,activity at 20.5 µM,"CYP1A2; human, microsomes, CYP 1A2, 20.5 µM, Zero-Minute Preincubation",99.4%
same,activity at 43.8 µM,"CYP1A2; human, microsomes, CYP 1A2, 43.8 µM, 30-Minute Preincubation",95.9%
same,activity at 43.8 µM,"CYP1A2; human, microsomes, CYP 1A2, 43.8 µM, Zero-Minute Preincubation",94.2%
same,activity at 93.5 µM,"CYP1A2; human, microsomes, CYP 1A2, 93.5 µM, 30-Minute Preincubation",89.6%
same,activity at 93.5 µM,"CYP1A2; human, microsomes, CYP 1A2, 93.5 µM, Zero-Minute Preincubation",84.6%
same,activity at 200 µM,"CYP1A2; human, microsomes, CYP 1A2, 200 µM, 30-Minute Preincubation",93.6%
same,activity at 200 µM,"CYP1A2; human, microsomes, CYP 1A2, 200 µM, Zero-Minute Preincubation",81.3%
same,IC50,OATP1B3,51.6 µM
same,IC50,"OATP1B3; human, HEK293 cells stably transfected with OATP1B3, pH 7.4, probe rosuvastatin (0.5 µM)",> 20 µM
same,Percent of Control Activity,"CYP2D6; CYP 2D6, 0.1 µM, 30-Minute Preincubation, 0.1 µM",92.9% and 101.4%
same,Percent of Control Activity,"CYP2D6; CYP 2D6, 0.1 µM, Zero-Minute Preincubation, 0.1 µM",87.8% and 108.7%
same,Percent of Control Activity,"CYP2D6; CYP 2D6, 0.214 µM, 30-Minute Preincubation, 0.214 µM",106.1%
same,Percent of Control Activity,"CYP2D6; CYP 2D6, 0.214 µM, Zero-Minute Preincubation, 0.214 µM",101.0% and 100.2%
same,Percent of Control Activity,"CYP2D6; CYP 2D6, 0.979 µM, 30-Minute Preincubation, 0.979 µM",107.3% and 99.0%
same,Percent of Control Activity,"CYP2D6; CYP 2D6, 0.979 µM, Zero-Minute Preincubation, 0.979 µM",96.4% and 103.2%
same,Percent of Control Activity,"CYP2D6; CYP 2D6, 2.09 µM, 30-Minute Preincubation, 2.09 µM",102.6% and 103.8%
same,Percent of Control Activity,"CYP2D6; CYP 2D6, 2.09 µM, Zero-Minute Preincubation, 2.09 µM",96.1% and 107.2%
same,Percent of Control Activity,"CYP2D6; CYP 2D6, 4.48 µM, 30-Minute Preincubation, 4.48 µM",102.2% and 99.7%
same,Percent of Control Activity,"CYP2D6; CYP 2D6, 4.48 µM, Zero-Minute Preincubation, 4.48 µM",105.0% and 106.1%
same,Percent of Control Activity,"CYP2D6; CYP 2D6, 20.5 µM, 30-Minute Preincubation, 20.5 µM",113.8% and 117.9%
same,Percent of Control Activity,"CYP2D6; CYP 2D6, 20.5 µM, Zero-Minute Preincubation, 20.5 µM",108.8%
same,Percent of Control Activity,"CYP2D6; CYP 2D6, 43.8 µM, 30-Minute Preincubation, 43.8 µM",122.8% and 114.4%
same,Percent of Control Activity,"CYP2D6; CYP 2D6, 43.8 µM, Zero-Minute Preincubation, 43.8 µM",99.1% and 109.2%
same,Percent of Control Activity,"CYP2D6; CYP 2D6, 93.5 µM, 30-Minute Preincubation, 93.5 µM",122.0% and 119.6%
same,Percent of Control Activity,"CYP2D6; CYP 2D6, 93.5 µM, Zero-Minute Preincubation, 93.5 µM",100.2%
same,Percent of Control Activity,"CYP2D6; CYP 2D6, 200 µM, 30-Minute Preincubation, 200 µM",102.0% and 91.1%
same,Percent of Control Activity,"CYP2D6; CYP 2D6, 200 µM, Zero-Minute Preincubation, 200 µM",73.5% and 82.2%
same,IC50,"CYP2D6; human, microsomes, pH 7.4",> 200 µM
same,activity at 0.1 µM,"CYP2D6; human, microsomes, pH 7.4, Percent of Control Activity, CYP 2D6, 0.1 µM, 30-Minute Preincubation",103%
same,activity at 0.214 µM,"CYP2D6; human, microsomes, pH 7.4, Percent of Control Activity, CYP 2D6, 0.214 µM, 30-Minute Preincubation",102%
same,activity at 0.214 µM,"CYP2D6; human, microsomes, pH 7.4, Percent of Control Activity, CYP 2D6, 0.214 µM, Zero-Minute Preincubation",98.6%
same,activity at 0.979 µM,"CYP2D6; human, microsomes, pH 7.4, Percent of Control Activity, CYP 2D6, 0.979 µM, 30-Minute Preincubation",104%
same,activity at 0.979 µM,"CYP2D6; human, microsomes, pH 7.4, Percent of Control Activity, CYP 2D6, 0.979 µM, Zero-Minute Preincubation",97.7%
same,activity at 2.09 µM,"CYP2D6; human, microsomes, pH 7.4, Percent of Control Activity, CYP 2D6, 2.09 µM, 30-Minute Preincubation",104%
same,activity at 2.09 µM,"CYP2D6; human, microsomes, pH 7.4, Percent of Control Activity, CYP 2D6, 2.09 µM, Zero-Minute Preincubation",99.9%
same,activity at 4.48 µM,"CYP2D6; human, microsomes, pH 7.4, Percent of Control Activity, CYP 2D6, 4.48 µM, 30-Minute Preincubation",109%
same,activity at 4.48 µM,"CYP2D6; human, microsomes, pH 7.4, Percent of Control Activity, CYP 2D6, 4.48 µM, Zero-Minute Preincubation",97.2%
same,activity at 20.5 µM,"CYP2D6; human, microsomes, pH 7.4, Percent of Control Activity, CYP 2D6, 20.5 µM, 30-Minute Preincubation",118%
same,activity at 20.5 µM,"CYP2D6; human, microsomes, pH 7.4, Percent of Control Activity, CYP 2D6, 20.5 µM, Zero-Minute Preincubation",97.6%
same,activity at 43.8 µM,"CYP2D6; human, microsomes, pH 7.4, Percent of Control Activity, CYP 2D6, 43.8 µM, 30-Minute Preincubation",119%
same,activity at 43.8 µM,"CYP2D6; human, microsomes, pH 7.4, Percent of Control Activity, CYP 2D6, 43.8 µM, Zero-Minute Preincubation",101%
same,activity at 93.5 µM,"CYP2D6; human, microsomes, pH 7.4, Percent of Control Activity, CYP 2D6, 93.5 µM, 30-Minute Preincubation",120%
same,activity at 93.5 µM,"CYP2D6; human, microsomes, pH 7.4, Percent of Control Activity, CYP 2D6, 93.5 µM, Zero-Minute Preincubation",91.9%
same,activity at 200 µM,"CYP2D6; human, microsomes, pH 7.4, Percent of Control Activity, CYP 2D6, 200 µM, 30-Minute Preincubation",95.7%
same,activity at 200 µM,"CYP2D6; human, microsomes, pH 7.4, Percent of Control Activity, CYP 2D6, 200 µM, Zero-Minute Preincubation",78.8%
same,bacterial reverse mutation assay result,[1],negative
same,hemolysis or flocculation/turbidity parameters,[2],no effect on hemolysis or flocculation/turbidity parameters
same,micronuclei formation,[3],did not induce micronuclei formation
